Reference: US20090036407A1, “FLEA CONTROL METHOD” (priority 2007, published 2009)

System: eggs of C. felis
Assay: Eggs and larvae of C. felis, egg to adult development assay (Test A, Test Example 1)
Assay type: in vivo
Details: 30 eggs x 3 replicates, 28 days
Description: Eggs and Larvae of C. felis—Egg to Adult Development Assay A larval support media was prepared consisting of 1 g dried bovine blood, 1 g dog biscuit and 5 g of fine sand. Two grams of the larval support media were placed into a 30 mL container for treatment with the test compound and drying. The test compound (3-bromo-N-[4-chloro-2-methyl-6-(methylcarbamoyl)phenyl]-1-(3-chloropyridin-2-yl)-1H-pyrazole-5-carboxamide) was prepared in acetone and serially diluted prior to testing. The concentrations used were as follows: 1 ug/uL, 0.5, 0.25, 0.125, 0.0625 ug/uL. 30 eggs of C. felis were placed into the culturing medium. Each concentration was replicated 3 times giving a total of 90 eggs per dose level. The untreated control was treated with acetone only. The containers were placed into a temperature and humidity controlled room and maintained for 28 days. After the incubation period had elapsed the containers were placed into a freezer for 1 hour. The adults and pupae were counted and % of adults and pupae that developed at each dose level was calculated. The activity was compared to Methoprene.

[1] = concentration 0.0625 (ug/uL) in treated larval support media
[2] = concentration 0.125 (ug/uL) in treated larval support media
[3] = concentration 0.25 (ug/uL) in treated larval support media
[4] = concentration 0.5 (ug/uL) in treated larval support media
[5] = concentration 1.0 (ug/uL) in treated larval support media

Compound	% eggs developed into adults [1]	% eggs developed into adults [2]	% eggs developed into adults [3]	% eggs developed into adults [4]	% eggs developed into adults [5]
CNC(=O)c1cc(Cl)cc(C)c1NC(=O)c1cc(Br)nn1-c1ncccc1Cl [Test Compound, 3-bromo-N-[4-chloro-2-methyl-6-(methylcarbamoyl)phenyl]-1-(3-chloropyridin-2-yl)-1H-pyrazole-5-carboxamide]	18.9%	0.0%	0.0%	0.0%	0.0%
COC(C)(C)CCC[C@H](C)C/C=C/C(C)=C/C(=O)OC(C)C (racemic) [Methoprene]	14.4%	3.3%	1.1%	0.0%	0.0%
